Data: PMC6162703, “Interaction of 2′R-ochratoxin A with Serum Albumins: Binding Site, Effects of Site Markers, Thermodynamics, Species Differences of Albumin-binding, and Influence of Albumin on Its Toxicity in MDCK Cells” (Toxins, 2018)
Where “and” joins values, the source holds several entries; their conditions need not be identical. Equal entries are not always repeated.

Assays:
HSA [1] = target: T1, HSA (Homo sapiens, UniProt P02768); type: binding; settings: 1.0 µM 2′R-OTA, 1.5 µM HSA, site marker 0–30 µM, PBS pH 7.4
T1 construct: purchased Sigma-Aldrich

rat serum albumin (RSA) = rat serum albumin (RSA) (Rattus norvegicus, UniProt P02770); test: Fluorescence spectroscopy of 2′R-OTA/OTA-RSA complex (binding constant by Hyperquad, fluorescence enhancement); settings: for Kd: K in L/mol, PBS pH 7.4, 25 °C
Experimental: (§1) To test this hypothesis, the fluorescence emission spectra of 2′R-OTA (Figure 7A) and OTA (Figure 7B) were recorded in the absence and presence of albumins from different species, including human (HSA), bovine (BSA), porcine (PSA), and rat (RSA) serum albumins (λex = 394 nm).
(§2) However, excitation of the same samples at 394 nm leads to the excitation of both free and albumin-bound 2′R-OTA [23, 24]. […] Binding constants of 2′R-OTA-albumin complexes were determined by the Hyperquad program, based on the fluorescence intensities measured at 447 nm (Figure 8C,D).
(§3) Fluorescence spectroscopic analyses, including anisotropy measurements, were carried out employing a Hitachi F-4500 fluorescence spectrophotometer. Spectroscopic measurements were performed in phosphate buffered saline (PBS, pH 7.4) at 25 °C in the presence of air. Fluorescence emission spectrum of 2′R-OTA (1 µM) was recorded in the presence of increasing concentrations of albumin (0.0, 0.1, 0.25, 0.5, 0.75, 1.0, 1.25, 1.5, 2.0, 3.0 and 5.0 µM) using 295 and 394 nm as excitation wavelengths. At 394 nm, we excited directly 2′R-OTA and its albumin complex. However, using 295 nm excitation wavelength, albumin-bound 2′R-OTA was excited as a result of the energy transfer between albumins and 2′R-OTA [23, 31].
(§4) Binding constants (K) of mycotoxin-albumin complexes were calculated by non-linear fitting, using the Hyperquad2006 program package (Protonic Software) as described in previous studies. The stoichiometry of 2′R-OTA-albumin complexes was calculated based on the model associated with the lowest standard deviation.

MDCK cells [2] = type: cell-based, canine; settings: 24 h; for effect on the concentration of ATP and total protein: 0–50 µM
Description: Similarly to OTA, 2′R-OTA also forms very stable complexes with albumins (Table 2). Therefore, it was reasonable to hypothesize that the presence of albumin may decrease the 2′R-OTA-induced toxicity in cell experiments, due to the entrapment of the mycotoxin in the cell medium by albumin. To test the influence of albumin on the in vitro effects of ochratoxins, the acute cellular toxicity of 2′R-OTA and OTA was investigated in the absence and presence of HSA and fetal bovine serum (FBS). MDCK kidney cells were treated with the mycotoxins at increasing concentrations (0–50 µM) for 24 h with and without 10% FBS or 40 g/L HSA. Ten percent FBS is commonly used in cell culture media (it yields approximately 3.5 g/L final concentration of BSA) in cell experiments, whereas approximately 40 g/L HSA circulates in the human blood. The mycotoxin-induced loss of cell viability was evaluated based on ATP and total protein levels. […] Under the applied conditions, the presence of 10% FBS or 40 g/L HSA (without ochratoxins) had no significant effect on cell viability (data not shown). […] The weaker effect of FBS can be attributed to the lower BSA content of the cell medium (3.5 g/L BSA verses 40 g/L HSA). Since albumins form very stable complexes with both 2′R-OTA and OTA, albumin likely reduces the cellular uptake of these mycotoxins, resulting in their lower cellular toxicity.
MDCK (Madin-Darby canine kidney epithelial cell line, ATCC: CCL-34) cell culture was maintained in DMEM with 10% FBS, penicillin (100 U/mL), and streptomycin (100 µg/mL) at 37 °C in a humidified environment (5% CO2). Cells were trypsinized and plated in 96-well sterile plastic plates (approximately 10^4 cells/well) for overnight pre-incubation. Next day, the culture medium was replaced with fresh one (with or without 10% FBS or 40 g/L HSA), then cells were treated with increasing concentrations of 2′R-OTA and/or OTA (0, 1, 5, 10, 20 and 50 µM; in 150 µL medium/well). After 24 h incubation, cell viability was evaluated based on cellular ATP and total protein levels. […]

HSA [3] = target: T1, HSA; settings: cited from earlier work
[4] = humans; cited from earlier work
[5] = humans; cited from earlier work; remark: listed apart in the source
[6] = target: human serum albumin (HSA) (Homo sapiens, UniProt P02768); test: Fluorescence spectroscopy of 2′R-OTA-HSA complex (binding constant by Hyperquad, fluorescence enhancement)
Experimental: as §1, §2, §3, §4

[7] = target: bovine serum albumin (BSA) (Bos taurus, UniProt P02769); test: Fluorescence spectroscopy of 2′R-OTA/OTA-BSA complex (binding constant by Hyperquad, fluorescence enhancement); settings: for Kd: K in L/mol, PBS pH 7.4, 25 °C
Experimental: as §1, §2, §3, §4

[8] = target: porcine serum albumin (PSA) (Sus scrofa, UniProt P08835); test: Fluorescence spectroscopy of 2′R-OTA/OTA-PSA complex (binding constant by Hyperquad, fluorescence enhancement); settings: λem = 447 nm; for Kd: K in L/mol, PBS pH 7.4, 25 °C
Experimental: as §1, §2, §3, §4

HSA [9] = target: T1, HSA; test: Thermodynamics of 2′R-OTA-HSA complex formation (van’t Hoff, six temperatures); type: binding
Description: Since thermodynamic data give a deeper insight into the nature of protein-ligand interactions (including binding forces are involved in the complex formation), the binding ability of 2′R-OTA towards HSA was also examined at different temperatures. According to the van’t Hoff equation (Equation (2)), the logK values expressed as the function of the appropriate reciprocal temperatures show good linearity (Figure 6).
For the deeper insight into 2′R-OTA-HSA interaction, binding constants of mycotoxin-albumin complexes were also determined at six different temperatures (298, 301, 304, 307, 310 and 313 K). The binding constants were determined by the Hyperquad2006 program package, using 394 and 447 nm as excitation and emission wavelengths, respectively. Thermodynamic parameters associated to the complex formation between 2′R-OTA and HSA were determined based on the van ’t Hoff equation: (2) logK=−ΔG /RT=−ΔH/2.303RT+ΔS/2.303R where ΔG, ΔH, and ΔS denote the Gibbs free energy, enthalpy, and entropy changes of the binding reaction, respectively; while R is the gas constant and T refers the temperature.

MDCK cells [10] = test: Co-treatment of MDCK cells with OTA and 2′R-OTA (ATP levels/well); type: cell-based, canine; settings: sub-toxic 2′R-OTA concentrations, 24 h
Experimental: Since 2′R-OTA appears in the circulation together with OTA, the toxic action of OTA in the presence of increasing 2′R-OTA concentrations was also tested. Both mycotoxins occupy Site I as their primary binding sites in albumin, therefore, 2′R-OTA may able to displace OTA from HSA, resulting in the increased cellular uptake and cytotoxicity of OTA in the presence of 2′R-OTA. Because 40 g/L HSA completely abolished the acute toxic action of ochratoxins, co-treatment of MDCK cells with OTA and 2′R-OTA was investigated without albumin and in the presence of 10% FBS. ATP levels/well were quantified after 24 h incubation. […] In the presence of FBS (Figure 10B), the 2′R-OTA-induced further loss in cell viability may be partly attributed to the displacement of OTA from albumin by 2′R-OTA. […] Therefore, other toxicokinetic and/or toxicodynamic mechanism(s) may be involved. Despite its relatively lower toxicity, when simultaneously present 2′R-OTA with OTA, 2′R-OTA can increase the effect of OTA.
MDCK (Madin-Darby canine kidney epithelial cell line, ATCC: CCL-34) cell culture was maintained in DMEM with 10% FBS, penicillin (100 U/mL), and streptomycin (100 µg/mL) at 37 °C in a humidified environment (5% CO2). […] After 24 h incubation, cell viability was evaluated based on cellular ATP and total protein levels. […]

[11] = tested on: IHKE and HepG2 cell lines; settings: in vitro studies; cited from earlier work
[12] = 1 µM mycotoxin, 5 µM albumin, PBS, λex = 394 nm
[13] = both excitation wavelengths (295 or 394 nm)

Sequence of porcine serum albumin (PSA) (P08835 25-607): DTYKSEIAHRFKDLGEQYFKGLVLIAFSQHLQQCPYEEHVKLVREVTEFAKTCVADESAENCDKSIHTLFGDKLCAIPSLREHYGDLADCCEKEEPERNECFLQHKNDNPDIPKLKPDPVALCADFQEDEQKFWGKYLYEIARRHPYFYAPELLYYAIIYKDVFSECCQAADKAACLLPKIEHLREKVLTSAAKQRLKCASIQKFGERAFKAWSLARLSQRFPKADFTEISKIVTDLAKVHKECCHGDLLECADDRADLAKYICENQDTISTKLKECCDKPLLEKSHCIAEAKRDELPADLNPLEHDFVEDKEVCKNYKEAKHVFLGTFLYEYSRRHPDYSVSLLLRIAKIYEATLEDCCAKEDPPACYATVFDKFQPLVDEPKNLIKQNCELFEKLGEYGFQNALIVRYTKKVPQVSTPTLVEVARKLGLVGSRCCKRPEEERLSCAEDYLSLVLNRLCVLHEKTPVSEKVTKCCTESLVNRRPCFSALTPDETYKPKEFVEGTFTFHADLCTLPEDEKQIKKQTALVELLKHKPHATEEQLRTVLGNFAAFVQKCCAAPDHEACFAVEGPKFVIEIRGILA
T1 sequence (P02768 25-609): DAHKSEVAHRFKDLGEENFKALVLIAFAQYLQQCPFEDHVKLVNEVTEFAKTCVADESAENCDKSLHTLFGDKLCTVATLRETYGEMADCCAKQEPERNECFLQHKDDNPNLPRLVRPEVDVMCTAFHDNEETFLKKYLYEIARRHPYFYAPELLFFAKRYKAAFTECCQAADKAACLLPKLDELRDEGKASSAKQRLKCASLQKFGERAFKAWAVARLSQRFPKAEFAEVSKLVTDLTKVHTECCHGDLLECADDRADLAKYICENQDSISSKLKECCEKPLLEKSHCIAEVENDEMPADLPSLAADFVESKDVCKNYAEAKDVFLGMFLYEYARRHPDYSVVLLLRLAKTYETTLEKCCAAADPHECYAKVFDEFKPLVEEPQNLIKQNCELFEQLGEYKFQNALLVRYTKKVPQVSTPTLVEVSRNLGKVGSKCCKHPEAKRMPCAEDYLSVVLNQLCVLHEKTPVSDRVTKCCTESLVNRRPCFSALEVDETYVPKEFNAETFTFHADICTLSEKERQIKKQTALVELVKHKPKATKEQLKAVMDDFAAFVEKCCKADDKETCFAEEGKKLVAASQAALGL
Sequence of human serum albumin (HSA) (P02768 25-609): as above
Sequence of bovine serum albumin (BSA) (P02769 25-607): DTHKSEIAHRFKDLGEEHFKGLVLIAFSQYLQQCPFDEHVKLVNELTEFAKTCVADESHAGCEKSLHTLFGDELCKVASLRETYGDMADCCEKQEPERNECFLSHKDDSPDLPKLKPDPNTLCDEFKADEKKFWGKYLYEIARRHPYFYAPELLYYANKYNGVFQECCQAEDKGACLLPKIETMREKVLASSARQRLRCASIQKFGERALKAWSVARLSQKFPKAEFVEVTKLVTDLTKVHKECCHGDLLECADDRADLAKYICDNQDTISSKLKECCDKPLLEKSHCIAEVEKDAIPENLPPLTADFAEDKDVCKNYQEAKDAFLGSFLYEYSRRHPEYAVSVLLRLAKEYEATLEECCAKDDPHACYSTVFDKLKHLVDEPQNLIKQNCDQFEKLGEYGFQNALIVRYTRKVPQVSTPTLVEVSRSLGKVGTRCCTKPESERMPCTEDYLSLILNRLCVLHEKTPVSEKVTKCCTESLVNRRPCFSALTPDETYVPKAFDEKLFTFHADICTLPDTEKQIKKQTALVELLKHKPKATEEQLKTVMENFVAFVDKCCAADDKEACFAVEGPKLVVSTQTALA
Sequence of rat serum albumin (RSA) (P02770 25-608): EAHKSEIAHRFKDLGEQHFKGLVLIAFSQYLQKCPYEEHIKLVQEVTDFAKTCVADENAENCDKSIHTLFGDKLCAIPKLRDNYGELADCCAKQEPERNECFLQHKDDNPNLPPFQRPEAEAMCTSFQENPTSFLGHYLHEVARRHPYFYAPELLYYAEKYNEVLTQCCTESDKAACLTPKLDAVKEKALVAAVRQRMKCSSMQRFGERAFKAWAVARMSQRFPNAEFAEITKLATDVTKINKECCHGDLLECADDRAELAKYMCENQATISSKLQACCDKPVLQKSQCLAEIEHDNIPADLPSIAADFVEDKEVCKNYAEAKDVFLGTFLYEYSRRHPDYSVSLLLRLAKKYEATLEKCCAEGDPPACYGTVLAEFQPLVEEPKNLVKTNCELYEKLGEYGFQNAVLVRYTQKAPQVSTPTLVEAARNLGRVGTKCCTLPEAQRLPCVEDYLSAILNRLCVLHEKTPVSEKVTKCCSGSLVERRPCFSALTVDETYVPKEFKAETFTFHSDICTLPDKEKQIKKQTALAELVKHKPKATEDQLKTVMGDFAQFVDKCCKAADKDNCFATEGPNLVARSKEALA

C=CC1=C(C)/C(=C/c2[nH]c(Cc3[nH]c(/C=C4\NC(=O)C(C)=C4C=C)c(C)c3CCC(=O)O)c(CCC(=O)O)c2C)NC1=O [bilirubin]
displacement of 2′R-OTA from HSA by the site marker (HSA [1]): strongly displaced

C[C@@H]1Cc2c(Cl)cc(C(=O)N[C@@H](Cc3ccccc3)C(=O)O)c(O)c2C(=O)O1 [OTA, Ochratoxin A]
fluorescence enhancement by RSA compared with other albumins (rat serum albumin (RSA); [12]): highest fluorescence | effect on the concentration of ATP and total protein (MDCK cells [2]): dose-dependent, significant decreases | stability of OTA-HSA complex higher than that of the complex with bovine albumin (HSA [3]): approximately tenfold | stability of OTA-HSA complex higher than that of the complex with rat albumin (HSA [3]): ~30 fold | affinity order toward albumins of different species (HSA [3]; previous investigations): Human > bovine > porcine > rat | plasma protein binding [4]: 99.8% | plasma elimination half-life [5]: approximately one month

CN(C)c1ccc(N=Nc2ccc(S(=O)(=O)[O-])cc2)cc1.[Na+] [methyl orange]
displacement of 2′R-OTA from HSA by the site marker (HSA [1]): strongly displaced | affinity to HSA compared with another ligand (HSA [3]): much lower affinity to HSA than bilirubin

CC1=C2C(=CO[C@H](C)[C@H]2C)C(O)=C(C(=O)O)C1=O [citrinin]
binding constant K of the complex with HSA (HSA [3]): 200000 L/mol

C[C@H]1CCCC(=O)CCC/C=C/c2cc(O)cc(O)c2C(=O)O1 [zearalenone]
binding constant K of the complex with HSA (HSA [3]): 10^5 L/mol

C[C@@H]1Cc2c(Cl)cc(C(=O)N[C@H](Cc3ccccc3)C(=O)O)c(O)c2C(=O)O1 [2′R-OTA, 2′R-ochratoxin A]
Kd [6]: 525 nM | I/I0 (±SD), enhancement of the fluorescence of 2′R-OTA by complex formation ([6]; HSA, λex = 394 nm, λem = 447 nm, PBS): 2.35 ± 0.07 | Kd at 1 µM ([6]; human, human serum albumin (HSA) in PBS, pH 7.4): 229 nM | fluorescence enhancement by BSA compared with other albumins [7, 12]: highest emission signal | I/I0 (±SD), enhancement of the fluorescence of 2′R-OTA by complex formation ([7]; BSA, λex = 394 nm, λem = 447 nm, PBS): 2.48 ± 0.06 | affinity to BSA relative to HSA and PSA [7, 13]: 2–3 times higher | Kd ([7]; logK (± SD) of binding constant, BSA, λex = 295 nm, λem = 447 nm): 214 nM | Kd ([7]; logK (±SD) of binding constant, BSA, λex = 394 nm, λem = 447 nm): 47.9 nM | Kd ([8]; logK (± SD) of binding constant, λex = 295 nm): 617 nM | Kd ([8]; logK (±SD) of binding constant, λex = 394 nm): 145 nM | I/I0 (±SD), enhancement of the fluorescence of 2′R-OTA by complex formation ([8]; λex = 394 nm, PBS): 1.98 ± 0.05 | I/I0 (±SD), enhancement of the fluorescence of 2′R-OTA by complex formation (rat serum albumin (RSA); RSA, λex = 394 nm, λem = 447 nm, PBS): 2.22 ± 0.09 | affinity to RSA relative to HSA and PSA (rat serum albumin (RSA); [13]): 2–3 times higher | Kd (rat serum albumin (RSA); logK (± SD) of binding constant, RSA, λex = 295 nm, λem = 447 nm): 355 nM | Kd (rat serum albumin (RSA); logK (±SD) of binding constant, RSA, λex = 394 nm, λem = 447 nm): 64.6 nM | ΔH of 2′R-OTA-HSA complex formation (HSA [9]; 298-313 K): -2.02 kcal/mol | ΔS of 2′R-OTA-HSA complex formation (HSA [9]; 298-313 K): 102.62 J K^-1 mol^-1 | ΔG of 2′R-OTA-HSA complex formation (HSA [9]; 298K (room-temperature)): -9.331 kcal/mol | effect on the concentration of ATP and total protein (MDCK cells [2]): dose-dependent, significant decreases | cytotoxicity relative to OTA (MDCK cells [2]): approximately 10 times lower | effect of 2′R-OTA on the toxic effect of OTA (MDCK cells [10]; absence of FBS, 1 μM OTA): increased significantly | effect of 2′R-OTA on the toxic effect of OTA (MDCK cells [10]; presence of 10% FBS, 20 μM OTA): increased significantly | affinity to HSA lower than that of OTA (HSA [3]): approximately tenfold | binding constant K of the complex with HSA (HSA [3]): ~ 2 × 10^6 L/mol and 2 × 10^6 L/mol | binding constant of 2′R-OTA-HSA complex higher than that of aflatoxin-HSA complexes (HSA [3]): 100 fold | acute toxicity compared with OTA [11]: lower acute toxicity
